In US10440955B2, “Methods comprising a biocidal polyamine” (Curza Global, LLC, priority 2013, dated 2019):
Where a name gives a salt, the structure may show the parent alone. Read-outs that look alike come from different tables or passages of the source. Each block holds one compound with its values, some of them ahead of it.

Columns and labels:
[1] = test system: MRSA; assay: MIC, 96-well CAMHB, 10^5 to 10^2 CFU/mL in 24 hours; format: cell-based, Staphylococcus aureus; conditions: Staphylococcus aureus, MRSA, read-out: MIC (MRSA)
Procedure: (§1) To determine the MIC of polyamine compounds, the protocol described herein was used.
In brief, a 0.5 McFarland of each bacterial isolate was made. A 0.5 McFarland is a measure of turbidity in a liquid sample that contains approximately 1×10^∧8 CFU/mL. The 0.5 McFarland standard was diluted in cation adjusted Mueller Hinton Broth (CAMHB), and 50 μL of broth were added to a well of a 96-well plate. In addition, 50 μL of CAMHB that contained a desired concentration of antimicrobial were also added to the well for a final volume of 100 μL and a final concentration of approximately 5×10^4 CFU/well (which equated to approximately 5×10^5 CFU/mL). Each well contained a desired amount of polyamine compound in order to experimentally determine the MIC. Each 96-well plate was incubated at 37° C. for 24 hours. The contents of each well were plated on tryptic soy agar (TSA). TSA plates were incubated for 37° C. for 24 hours after which the number of CFU were counted and used to calculate the CFU/mL that remained after exposure to varying concentrations of compound. This procedure was repeated n=8 times for each concentration of antimicrobial. […]

[2] = test system: A. baumannii; assay: as above; format: cell-based, Acinetobacter baumannii; conditions: Acinetobacter baumannii, read-out: MIC (A. bumannii)
Procedure: as §1
(§2) In brief, a 0.5 McFarland of each bacterial isolate was made. A 0.5 McFarland is a measure of turbidity in a liquid sample that contains approximately 1×10^∧8 CFU/mL. The 0.5 McFarland standard was diluted in cation adjusted Mueller Hinton Broth (CAMHB), and 50 μL of broth were added to a well of a 96-well plate. In addition, 50 μL of CAMHB that contained a desired concentration of antimicrobial were also added to the well for a final volume of 100 μL and a final concentration of approximately 5×10^4 CFU/well (which equated to approximately 5×10^5 CFU/mL). Each well contained a desired amount of polyamine compound in order to experimentally determine the MIC. Each 96-well plate was incubated at 37° C. for 24 hours. The contents of each well were plated on tryptic soy agar (TSA). TSA plates were incubated for 37° C. for 24 hours after which the number of CFU were counted and used to calculate the CFU/mL that remained after exposure to varying concentrations of compound. This procedure was repeated n=8 times for each concentration of antimicrobial.
A 0.5 McFarland of A. baumannii is made. A 0.5 McFarland is a measure of turbidity in a liquid sample that contains approximately 7.5×10^7 CFU/mL. The 0.5 McFarland standard is diluted in CAMHB and 50 μL of broth is added to a well of a 96-well plate. In addition, 50 μL of CAMHB that contains a desired concentration of antimicrobial is added to the well for a final volume of 100 μL and a final concentration of approximately 5×10^4 CFU/well (which equates to approximately 5×10^5 CFU/mL). Each well contains a desired amount of CZ compound in order to experimentally determine the MIC. Each 96-well plate is incubated at 37° C. for 24 hours. The contents of each well is plated on tryptic soy agar (TSA). TSA plates is incubated at 37° C. for 24 hours after which the number of CFUs is counted and used to calculate the CFU/mL that remain after exposure to varying concentrations of compound. This procedure is repeated n=8 times for each concentration of antimicrobial. […]

[3] = test system: P. aeruginosa; assay: as above; format: cell-based, Pseudomonas aeruginosa; conditions: for MIC: Pseudomonas aeruginosa
Procedure: as §1, §2

[4] = test system: L-929 cells (ATCC CCL-1); assay: Minimal Essential Media (MEM) Elution cytotoxicity test; format: cell-based
Procedure: Summary: The Minimal Essential Media (MEM) Elution test was designed to determine the cytotoxicity of extractable substances. The test article was added to cell monolayers and incubated. The cell monolayers were examined and scored based on the degree of cellular destruction.
Acceptance Criteria: The United States Pharmacopeia & National Formulary (USP <87>) states that the test article meets the requirements, or receives a passing score (Pass) if the reactivity grade is not greater than grade 2 or a mild reactivity.
Acceptance criteria were based upon the negative and media controls receiving “0” reactivity grades and positive controls receiving a 3-4 reactivity grades (moderate to severe).
The cell monolayers were examined microscopically. The wells were scored as to the degree of discernable morphological cytotoxicity on a relative scale of 0 to 4:
The results from the three wells were averaged to give a final cytotoxicity score.
[…] This initial concentration was then diluted 1: 2, 1:4, 1:8, and 1:16. Multiple well cell culture plates were seeded with a verified quantity of industry standard L-929 cells (ATCC CCL-1) and incubated until approximately 80% confluent. The test articles and control extracts were added to the cell monolayers in triplicate. The cells were incubated at 37±1° C. with 5±1% CO2 for 48±3 hours.

[5] = Table 5, read-out: MIC (P. aeruginosa)
[6] = Table 10A, dilution 1:2 of 25 μg/mL
[7] = Table 10A, dilution 1:4 of 25 μg/mL
[8] = Table 10A, dilution 1:8 of 25 μg/mL
[9] = Table 10A, dilution 1:16 of 25 μg/mL
[10] = read-out: MIC (P. aeruginosa), Table 5

SMILES: NCCCCCCCCCCCCNCc1cccc(CNCCCCCCCCCCCCN)c1 [CZ-21, N^1,N^1′-(1,3-phenylenebis(methylene))bis(dodecane-1,12-diamine), hydrochloride salt]
MIC [1]: < 50 µM | MIC [2]: > 100 µM

SMILES: NCCCNCCCNCc1cc(CNCCCNCCCN)cc(CNCCCNCCCN)c1 [CZ-55]
MIC ([1]; Table 5): < 50 µM | MIC [3, 5]: < 50 µM | MIC ([2]; Table 5): > 100 µM

MIC ([1]; Table 5): < 50 µM | MIC [3, 5]: > 100 µM | MIC ([2]; Table 5): > 100 µM
SMILES: NCCCNCCCNCc1cc(CNCCCNCCCN)cc(-c2c(CNCCCNCCCN)cccc2CNCCCNCCCN)c1 [CZ-60]

SMILES: NCCCNCCCNCc1cc(CNCCCNCCCN)cc(-c2ccc3c(c2)OCO3)c1 [CZ-61, N^1,N^1′-((5-(benzo[d][1,3]dioxol-5-yl)-1,3-phenylene)bis(methylene))bis(N^3-(3-ammoniopropyl)propane-1,3-diaminium) chloride]
MIC [2]: < 50 µM

SMILES: NCCCNCCCNCc1cccc(-c2cc(CNCCCNCCCN)cc(CNCCCNCCCN)c2)c1 [CZ-62, N^1,N^1′,N^1″-([1,1′-biphenyl]-3,3′,5-triyltris(methylene))tris(N^3-(3-aminopropyl)propane-1,3-diamine), hydrochloride salt]
MIC [2]: < 50 µM | Results Pass/Fail ([4]; Table 10A, 25 μg/mL): Fail (a numerical grade greater than 2 is considered a cytotoxic effect, or a failing score (Fail)) | Results Pass/Fail [4, 6]: Fail (a numerical grade greater than 2 is considered a cytotoxic effect, or a failing score (Fail)) | Results Pass/Fail [4, 7]: Fail (a numerical grade greater than 2 is considered a cytotoxic effect, or a failing score (Fail)) | Results Pass/Fail [4, 8]: Pass (receives a passing score (Pass) if the reactivity grade is not greater than grade 2 or a mild reactivity) | Results Pass/Fail [4, 9]: Pass (receives a passing score (Pass) if the reactivity grade is not greater than grade 2 or a mild reactivity)

SMILES: Cc1ccccc1-c1cc(CNCCCNCCCN)cc(CNCCCNCCCN)c1 [CZ-63, N^1,N^1′-((2′-methyl-[1,1′-biphenyl]-3,5-diyl)bis(methylene))bis(N^3-(3-aminopropyl)propane-1,3-diamine), hydrochloride salt]
MIC [2]: < 50 µM

SMILES: NCCCNCCCNCc1ccc(-c2cc(CNCCCNCCCN)cc(CNCCCNCCCN)c2)cc1 [CZ-65, N^1,N^1′,N^1″-([1,1′-biphenyl]-3,4′,5-triyltris(methylene))tris(N^3-(3-aminopropyl)propane-1,3-diamine), hydrochloride salt]
MIC [2]: < 50 µM | Results Pass/Fail ([4]; Table 10A, 25 μg/mL): Fail (a numerical grade greater than 2 is considered a cytotoxic effect, or a failing score (Fail)) | Results Pass/Fail [4, 6]: Fail (a numerical grade greater than 2 is considered a cytotoxic effect, or a failing score (Fail)) | Results Pass/Fail [4, 7]: Pass (receives a passing score (Pass) if the reactivity grade is not greater than grade 2 or a mild reactivity) | Results Pass/Fail [4, 8]: Pass (receives a passing score (Pass) if the reactivity grade is not greater than grade 2 or a mild reactivity) | Results Pass/Fail [4, 9]: Pass (receives a passing score (Pass) if the reactivity grade is not greater than grade 2 or a mild reactivity)

SMILES: NCCCNCCCNCCCNCc1cc(CNCCCNCCCNCCCN)cc(-c2ccccc2)c1 [CZ-73, N^1,N^1′-([1,1′-biphenyl]-3,5-diylbis(methylene))bis(N^3-(3-((3-aminopropyl)amino)propyl)propane-1,3-diamine), hydrochloride salt]
MIC [2]: 50 to 100 µM

SMILES: CCCCC(CC)COc1cc(CNCCCNCCCN)cc(CNCCCNCCCN)c1 (stereo not drawn) [CZ-81, N^1,N^1′-((5-((2-ethylhexyl)oxy)-1,3-phenylene)bis(methylene))bis(N^3-(3-aminopropyl)propane-1,3-diamine), hydrochloride salt]
MIC [1]: < 50 µM | MIC [3, 10]: < 50 µM | MIC [2]: < 50 µM

SMILES: CCCCNCCCNCCCNCc1cc(CNCCCNCCCNCCCC)cc(-c2ccccc2)c1 [CZ-83, N^1,N^1′-([1,1′-biphenyl]-3,5-diylbis(methylene))bis(N^3-(3-(butylamino)propyl)propane-1,3-diamine), hydrochloride salt]
MIC [1]: < 50 µM | MIC [3, 10]: < 50 µM | MIC [2]: < 50 µM

MIC ([1]; Table 5): < 50 µM | MIC (P. aeruginosa) ([3]; Table 5): ++ to +++
SMILES: CC(C)CNCCCNCCCNCc1cccc(-c2cc(CNCCCNCCCNCC(C)C)cc(CNCCCNCCCNCC(C)C)c2)c1 [CZ-99, N^1,N^1′,N^1″-([1,1′-biphenyl]-3,3′,5-triyltris(methylene))tris(N^3-(3-(isobutylamino)propyl)propane-1,3-diamine)]
Results Pass/Fail ([4]; Table 11A, 25 μg/mL): Pass (receives a passing score (Pass) if the reactivity grade is not greater than grade 2 or a mild reactivity) | Results Pass/Fail ([4]; Table 11A, dilution 1:2 of 25 μg/mL): Pass (receives a passing score (Pass) if the reactivity grade is not greater than grade 2 or a mild reactivity) | Results Pass/Fail ([4]; Table 11A, dilution 1:4 of 25 μg/mL): Pass (receives a passing score (Pass) if the reactivity grade is not greater than grade 2 or a mild reactivity) | Results Pass/Fail ([4]; Table 11A, dilution 1:8 of 25 μg/mL): Pass (receives a passing score (Pass) if the reactivity grade is not greater than grade 2 or a mild reactivity) | Results Pass/Fail ([4]; Table 11A, dilution 1:16 of 25 μg/mL): Pass (receives a passing score (Pass) if the reactivity grade is not greater than grade 2 or a mild reactivity)

MIC ([1]; Table 5): < 50 µM | MIC [3, 5]: < 50 µM | MIC ([2]; Table 5): < 50 µM
SMILES: CCCCCCCCNCCCNCCCNCc1cc(CNCCCNCCCNCCCCCCCC)cc(OCC2CCCCC2)c1 [CZ-103, N^1,N^1′-((5-(cyclohexylmethoxy)-1,3-phenylene)bis(methylene))bis(N^3-(3-(octylamino)propyl)propane-1,3-diamine)]
